Reference: patent EP4653001A1, “TREATMENT, DIAGNOSIS AND/OR PROGNOSIS OF MITOCHONDRIAL DISEASES” (Universidad Autónoma de Madrid, priority 2024, dated 2025)

What was measured:
143B cell lines = experiment: Cell viability of CRISPR knock-out 143B cell lines treated with ETC inhibitors; format: cell-based
Experimental: All cell lines, 143b, HeLa, U2OS, and transmitochondrial cybrids carrying mutation in CI (ND2), CIII (CytB) or CIV (Cox2) subunits, were maintained in DMEM high glucose (HyClone), 10% FBS and 1% P/S at 37°C with 5% CO2. Mitochondrial mutant cells were cultured with supplementation of 50 µg/mL uridine. The selected cancer cell lines with different levels of malic enzyme (HCC15, KYSE410, CAKI1, J82, MDAMB453, Colo320, NCIH1703) were obtained from the DSMZ-German Collection of Microorganisms and Cell Cultures GmbH and cultured in the same DMEM 10% FBS medium. OCI-Lys3 and RCH-ACV cell lines (cells in suspension), were obtained from the same repository and cultured in RPMI 10% FBS medium. Transfections for gain- and loss-of-function studies were performed according to the manufacturer's instructions using the polyfect reagent (Qiagen, 301107). For cell number and proliferation experiments, cells were seeded in 12 or 6-well plates and allowed to proliferate for the specified durations. Subsequently, cells were trypsinized and quantified using a hemocytometer (NanoEnTek, DHC-N01). Cell viability was quantified using propidium iodide (PI; 50 µg/ml) staining.
Generation of knockout cell lines using CRISPR-Cas9 technology was performed with the lenti-CRISPR v2 vector (Addgene #52961). Guide sequences are: • sgGFPT1, 5-[…]-3 (SEQ ID NO: 1); • sgG6PD, 5-[…]-3 (SEQ ID NO: 2); • sgPHGDH, 5-[…]-3 (SEQ ID NO: 3); • sgMPC1, 5-[…]-3 (SEQ ID NO: 4) • sgPC, 5-CAGGCCCGGAACACACGGA-3 (SEQ ID NO: 5); • sgACLY, 5-[…]-3 (SEQ ID NO: 6); • sgME1, 5-[…]-3 (SEQ ID NO: 7).
To investigate glucose-dependent alternative metabolic pathways that become essential upon ETC inhibition, we generated through CRISPR/Cas9 technology, knock-out (KO) 143B cell lines for each of the following rate-limiting enzymes and transporters. We selected glucose 6 phosphate dehydrogenase (G6PD) for the PPP, Glutamine-Fructose-6-Phosphate Transaminase 1 (GFPT1) for the hexosamine pathway, Phosphoglycerate Dehydrogenase (PHGDH) for the serine biosynthesis pathway and Mitochondrial Pyruvate Carrier 1 (MPC1) to prevent pyruvate entry into the mitochondria. These KO and Control cells were treated with two specific ETC inhibitors (Piericidin A that targets Complex I and Antimycin A that targets Complex III) and cell viability was assessed after 3 days of treatment. […] We took advantage of the fruit fly Drosophila melanogaster model, as it is cost- and time-efficient and recapitulate a wide range of phenotypes seen in patients with metabolic and mitochondrial disorders. We obtained flies carrying mutations in Zw and Pgd genes (named: Pgd^39 Zw^lo2a), corresponding to human orthologs G6PD and 6PGD respectively. […]

PC KO and ACLY KO cells = experiment: Intracellular malate levels in PC KO and ACLY KO 143B cells; format: cell-based; conditions: double ablation of PC and ACLY, 100 nM, 72 h
Experimental: 1-5.0×10^6 cells were harvested on dry ice with 1 mL pre-chilled 80% HPLC-grade methanol (Fluka Analytical). The cell mixture was incubated for 15 min on dry ice prior to centrifugation at 18,000 × g for 10 min at 4°C. The supernatant was retained, and the remaining cell pellet was resuspended in 800 µL chilled 80% methanol and centrifuged. Supernatant was combined with the previous retention and was lyophilized using a SpeedVac (Thermo Fisher). Lyophilized samples were resuspended in 20 µL ultrapure water and subjected to metabolomics profiling using the AB/SCIEX 5500 QTRAP triple quadrupole instrument. Data analysis was performed using the GiTools software. 13C-labeled glutamine and glucose was acquired in SIGMA (605166 and 389374).
To assess the relative contribution of PC and ACLY to cell death phenotype in ETC deficient cells upon PPP inhibition, we treated PC KO and ACLY KO cells with Piericidin, G6PDi or both. […] A plausible explanation for the lack of phenotype in both PC and ACLY KO cells could be the upregulation of compensatory mechanisms whereby PC depletion would cause an enhanced rerouting of glutamine through ACLY and vice versa. […]

## CC=C(C)C(O)C(C)C=C(C)C=CCC(C)=CCc1nc(OC)c(OC)c(O)c1C (stereo not drawn) [Piericidin, Piericidin A]
143B cell lines; G6PD KO 143B cells, after 3 days of treatment
  cell viability: sensitive
143B cell lines; KO cells for GFPT1, PHGDH or MPC1, after 3 days of treatment
  survival or proliferation: no differences
PC KO and ACLY KO cells
  intracellular malate levels: parallel decrease
